Test system: conscious male spontaneously hypertensive rats (SHR)
Experiment: Systolic blood pressure by inflatable tail cuff in conscious spontaneously hypertensive rats
Format: in vivo
Protocol: Potentiation of the anti-hypertensive response to Compounds of formula (I) has been observed in conscious male spontaneously hypertensive rats (SHR) when the compounds were combined with the angiotensin I converting enzyme inhibitor enalapril. For the purpose of the experiment 36 rats were allotted at random to 4 groups, each of 9 rats. Systolic blood pressure (SBP) was measured non-invasively using an inflatable tail cuff technique as described in the aforementioned European Patent references. The protocol of the experiment was as follows: [table] […] The results were as shown in Table I. The protocol of the experiment for pinacidil was as follows: [table] […]

Compound: CN1CCCN(C2c3cc(C#N)ccc3OC(C)(C)C2O)C1=O (stereo not drawn) [Compound 3, 6-cyano-3,4-dihydro-2,2-dimethyl-trans-4-(N-3-methyltetrahydro-2-pyrimidone)-2H-benzo[b]pyran-3-ol]
- SBP change (quantity not headed in table; as % change of Table I) (Compound 3 2.0 mg/kg po alone, time 0.75, time-0 value 253±6): 0±3
- SBP change (quantity not headed in table; as % change of Table I) (Compound 3 2.0 mg/kg po alone, time 1.75, time-0 value 253±6): -20±3
- SBP change (quantity not headed in table; as % change of Table I) (Compound 3 2.0 mg/kg po alone, time 2.75, time-0 value 253±6): -22±3
- SBP change (quantity not headed in table; as % change of Table I) (Compound 3 2.0 mg/kg po alone, time 4.75, time-0 value 253±6): -21±3

Compound: CC1(C)Oc2ccncc2[C@@H](N2CCCC2=O)[C@@H]1O (relative stereo) [Compound 2, trans-3,4-dihydro-2,2-dimethyl-4-(2-oxopyrrolidin-1-yl)-2H-pyrano[3,2-c]pyridin-3-ol]
- SBP change (quantity not headed in table; as % change of Table I) (Compound 2 0.6 mg/kg po alone, time 0.75, time-0 value 244±6): 1±2
- SBP change (quantity not headed in table; as % change of Table I) (Compound 2 0.6 mg/kg po alone, time 1.75, time-0 value 244±6): -20±2
- SBP change (quantity not headed in table; as % change of Table I) (Compound 2 0.6 mg/kg po alone, time 2.75, time-0 value 244±6): -12±3
- SBP change (quantity not headed in table; as % change of Table I) (Compound 2 0.6 mg/kg po alone, time 4.75, time-0 value 244±6): -11±2

Compound: CC(N/C(=N\C#N)Nc1ccncc1)C(C)(C)C (stereo not shown) [Pinacidil, Nʺ-Cyano-N-4-pyridyl-Nʹ-1,2,2-trimethylpropylguanidine]
- % change (± s.e.m.) of SBP (Group 3: vehicle at 0 h, pinacidil 1 mg/kg po at 0.75 h, time 0.75 h (time of pinacidil dosing), initial SBP 269±4 mmHg): +4±1%
- % change (± s.e.m.) of SBP (Group 3: vehicle at 0 h, pinacidil 1 mg/kg po at 0.75 h, time 1.75 h, initial SBP 269±4 mmHg, n=8): -33±5(n=8) %
- % change (± s.e.m.) of SBP (Group 3: vehicle at 0 h, pinacidil 1 mg/kg po at 0.75 h, time 2.75 h, initial SBP 269±4 mmHg): -19±3%
- % change (± s.e.m.) of SBP (Group 3: vehicle at 0 h, pinacidil 1 mg/kg po at 0.75 h, time 4.75 h, initial SBP 269±4 mmHg): -9±3%

Compound: CCOC(=O)[C@H](CCc1ccccc1)N[C@@H](C)C(=O)N1CCC[C@H]1C(=O)O [Enalapril]
- SBP change (quantity not headed in table; as % change of Table I) (Compound 2 experiment: Compound (A) 3 mg/kg po alone, time 0.75, time-0 value 247±3): -9±1
- SBP change (quantity not headed in table; as % change of Table I) (Compound 2 experiment: Compound (A) 3 mg/kg po alone, time 1.75, time-0 value 247±3): -22±2
- SBP change (quantity not headed in table; as % change of Table I) (Compound 2 experiment: Compound (A) 3 mg/kg po alone, time 2.75, time-0 value 247±3): -14±3
- SBP change (quantity not headed in table; as % change of Table I) (Compound 2 experiment: Compound (A) 3 mg/kg po alone, time 4.75, time-0 value 247±3): -16±2
- SBP change (quantity not headed in table; as % change of Table I) (Compound 3 experiment: Compound (A) 3 mg/kg po alone, time 0.75, time-0 value 254±4): -8±2
- SBP change (quantity not headed in table; as % change of Table I) (Compound 3 experiment: Compound (A) 3 mg/kg po alone, time 1.75, time-0 value 254±4): -10±3
- SBP change (quantity not headed in table; as % change of Table I) (Compound 3 experiment: Compound (A) 3 mg/kg po alone, time 2.75, time-0 value 254±4): -12±4
- SBP change (quantity not headed in table; as % change of Table I) (Compound 3 experiment: Compound (A) 3 mg/kg po alone, time 4.75, time-0 value 254±4): -21±3
- SBP change (quantity not headed in table; as % change of Table I) (Compound 4 experiment: Compound (A) 3 mg/kg po alone, time 0.75, time-0 value 280±5): -4±2
- SBP change (quantity not headed in table; as % change of Table I) (Compound 4 experiment: Compound (A) 3 mg/kg po alone, time 1.75, time-0 value 280±5): -9±2
- SBP change (quantity not headed in table; as % change of Table I) (Compound 4 experiment: Compound (A) 3 mg/kg po alone, time 2.75, time-0 value 280±5): -12±3
- SBP change (quantity not headed in table; as % change of Table I) (Compound 4 experiment: Compound (A) 3 mg/kg po alone, time 4.75, time-0 value 280±5): -14±2
- % change (± sem) of SBP (Group 2: enalapril 3 mg/kg po at 0 h, vehicle at 0.75 h, time 0.75 h, initial SBP 257±3 mmHg): -8±2%
- % change (± sem) of SBP (Group 2: enalapril 3 mg/kg po at 0 h, vehicle at 0.75 h, time 1.75 h, initial SBP 257±3 mmHg): -11±4%
- % change (± sem) of SBP (Group 2: enalapril 3 mg/kg po at 0 h, vehicle at 0.75 h, time 2.75 h, initial SBP 257±3 mmHg): -15±2%
- % change (± sem) of SBP (Group 2: enalapril 3 mg/kg po at 0 h, vehicle at 0.75 h, time 4.75 h, initial SBP 257±3 mmHg, n=7): -17±2 (n=7) %
- % change (± s.e.m.) of SBP (Pinacidil experiment, Group 2: enalapril 3 mg/kg po at 0 h, vehicle at 0.75 h, time 0.75 h, initial SBP 274±6 mmHg): -4±1%
- % change (± s.e.m.) of SBP (Pinacidil experiment, Group 2: enalapril 3 mg/kg po at 0 h, vehicle at 0.75 h, time 1.75 h, initial SBP 274±6 mmHg): -14±3%
- % change (± s.e.m.) of SBP (Pinacidil experiment, Group 2: enalapril 3 mg/kg po at 0 h, vehicle at 0.75 h, time 2.75 h, initial SBP 274±6 mmHg): -16±3%
- % change (± s.e.m.) of SBP (Pinacidil experiment, Group 2: enalapril 3 mg/kg po at 0 h, vehicle at 0.75 h, time 4.75 h, initial SBP 274±6 mmHg, n=8): -17±3(n=8) %

Compound: CC1(C)Oc2ccc(C#N)cc2[C@@H](N2CCCC2=O)[C@@H]1O (relative stereo) [Compound 1, 6-cyano-3,4-dihydro-2,2-dimethyl-trans-4-(2-oxo-1-pyrrolidinyl)-2H-benzo[b]pyran-3-ol]
- % change (± sem) of SBP (Group 3: vehicle at 0 h, Compound 1 0.3 mg/kg po at 0.75 h, time 0.75 h (time of compound dosing), initial SBP 262±3 mmHg): -2±2%
- % change (± sem) of SBP (Group 3: vehicle at 0 h, Compound 1 0.3 mg/kg po at 0.75 h, time 1.75 h, initial SBP 262±3 mmHg): -43±2%
- % change (± sem) of SBP (Group 3: vehicle at 0 h, Compound 1 0.3 mg/kg po at 0.75 h, time 2.75 h, initial SBP 262±3 mmHg): -21±2%
- % change (± sem) of SBP (Group 3: vehicle at 0 h, Compound 1 0.3 mg/kg po at 0.75 h, time 4.75 h, initial SBP 262±3 mmHg): -15±3%

Compound: CC(=O)NC1c2cc(C#N)ccc2OC(C)(C)C1O (stereo not drawn) [Compound 4, trans-4-N-acetylamino-6-cyano-3,4-dihydro-2,2-dimethyl-2H-benzo[b]pyran-3-ol]
- SBP change (quantity not headed in table; as % change of Table I) (Compound 4 0.15 mg/kg po alone, time 0.75, time-0 value 281±5): 0±2
- SBP change (quantity not headed in table; as % change of Table I) (Compound 4 0.15 mg/kg po alone, time 1.75, time-0 value 281±5): -26±4
- SBP change (quantity not headed in table; as % change of Table I) (Compound 4 0.15 mg/kg po alone, time 2.75, time-0 value 281±5): -23±4
- SBP change (quantity not headed in table; as % change of Table I) (Compound 4 0.15 mg/kg po alone, time 4.75, time-0 value 281±5): -13±2

Source: patent EP0271271B1, “Pharmaceutical preparations” (BEECHAM GROUP PLC, priority 1986, dated 1988)
